Test results reported in US20250313546A1, “NUCLEIC ACID BINDERS” (UNIVERSITY OF STRATHCLYDE, priority 2022, published 2025).
pIC50: −log10 of the molar value. Converted amounts (≈) assume the structure as drawn.

Columns and labels:
[1] = test system: T. vaginalis; assay: Trichomonas resorufin assay; format: cell-based; conditions: for pIC50: Trichomonas vaginalis, read-out: IC50 T. vaginalis
[2] = test system: C. neoformans (F10025); conditions: Cryptococcus neoformans, read-out: MIC99 C. neoformans
Protocol: (§2) The Minimum Inhibitory Concentration (MIC, at 99% inhibition) of the compounds was determined using the broth microdilution method as recommended by EUCAST (EUCAST Definitive Document E.DEF 9.3.2, Method for the determination of broth dilution minimum inhibitory concentrations of antifungal agents for conidia forming moulds and EUCAST Definitive Document E.DEF 7.3.2 Method for the determination of broth dilution minimum inhibitory concentrations of antifungal agents for yeasts).

[3] = test system: Candida auris (H.17.157); conditions: Candidozyma auris, read-out: MIC99 Candida auris
[4] = test system: Enterococcus faecalis (ATCC 51299); assay: Antibacterial MIC, broth microdilution (CLSI); format: cell-based; conditions: for MIC80: Enterococcus faecalis, ATCC51299, read-out: MIC80 E. faecalis
[5] = test system: Rhizopus arrhizus (NEQAS12.35321); conditions: read-out: MIC99 Rhizopus arrhizus
[6] = test system: A. fumigatus A1160 (MFIG001); conditions: Aspergillus fumigatus, read-out: MIC99 A. fumigatus A1160
Protocol: as §2

[7] = test system: Escherichia coli (ATCC 25922); assay: Antibacterial MIC, broth microdilution (CLSI); format: cell-based; conditions: Escherichia coli, ATCC25922; read-out: MIC80 E. coli
[8] = test system: PolyAU double stranded RNA; assay: Fluorescence intercalator displacement (FID) assay, SYBR-safe probe; conditions: 20 μM compound, 30° C., lower % = stronger binding
Outline: (§1)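 Probe displacement was measured at 30 °C in 1 mM phosphate pH 7.4 containing SybrSafe (12500-fold dilution), 3.76 ng/mL nucleic acid (salmon dsDNA or polyAU dsRNA) and 20 μM compound. Fluorescence loss is normalised between probe-only and probe-plus-nucleic-acid controls.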

[9] = test system: Genomic double stranded DNA (salmon); assay: as above; conditions: 20 μM compound, 30° C., lower % = stronger binding
Outline: as §1

[10] = test system: Candida glabrata (ACPF3309); conditions: Nakaseomyces glabratus, read-out: MIC99 Candida glabrata
[11] = test system: Staphylococcus aureus (ATCC 43300); assay: Antibacterial MIC, broth microdilution (CLSI); format: cell-based; conditions: for MIC80: Staphylococcus aureus, ATCC43300, read-out: MIC80 S. aureus; for S. aureus Selectivity Indices, Group / S. aureus Selectivity Index (SI): SI, IC50 (μM)/MIC80 (μM), HEK293 cytotoxicity; for S. aureus Selectivity Index (SI): numeric value
[12] = SI, IC50 (μM)/IC50 (μM), HEK293 cytotoxicity, Alkyl Amidines and NH Pyrroles
[13] = SI, IC50 (μM)/MIC80 (μM), HEK293 cytotoxicity, Alkyl Amidines and NH Pyrroles

Structure (SMILES) | T. vaginalis Selectivity Indices, Group [1, 12] | T. vaginalis Selectivity Index (SI) ([1]; SI, IC50 (μM)/IC50 (μM), HEK293 cytotoxicity, numeric value) | MIC99 [2] | MIC99 [3] | E. faecalis Selectivity Indices, Group [4, 13] | MIC99 [5] | MIC99 [6] | MIC80 [7] | % Normalised Fluorescence with polyAU RNA [8] | % Normalised Fluorescence with gDNA [9] | MIC99 [10] | MIC80 [11] | pIC50 [1] | MIC80 [4] | S. aureus Selectivity Indices, Group ([11]; Alkyl Amidines and NH Pyrroles) | S. aureus Selectivity Index (SI) [11] | T. vaginalis Selectivity Indices, Group ([1]; SI, IC50 (μM)/IC50 (μM), HEK293 cytotoxicity, Quaternary ammoniums) | E. faecalis Selectivity Indices, Group ([4]; SI, IC50 (μM)/MIC80 (μM), HEK293 cytotoxicity, Quaternary ammoniums) | E. faecalis Selectivity Index (SI) ([4]; SI, IC50 (μM)/MIC80 (μM), HEK293 cytotoxicity, numeric value) | S. aureus Selectivity Indices, Group ([11]; Quaternary ammoniums)
CCNC(=N)CCNC(=O)c1cc(NC(=O)c2cc(NC(=O)c3ccc(/C=C/c4ccc(OC)cc4)nc3)cn2C)cn1C [Ia24, (E)-N-(5-((5-((3-(ethylamino)-3-iminopropyl)carbamoyl)-1-methyl-1H-pyrrol-3-yl)carbamoyl)-1-methyl-1H-pyrrol-3-yl)-6-(4-methoxystyryl)nicotinamide] | D (Group D: SI > 32) | 69 | 5 to 25 µg/mL (≈ 8.38 to 41.9 µM) | > 50 µg/mL | C (Group C: 5 < SI <= 10) | > 50 µg/mL | 25 to 50 µg/mL (≈ 41.9 to 83.8 µM) | > 100 µM | 4% | 1% | 5 to 25 µg/mL (≈ 8.38 to 41.9 µM) | < 5 µM | – | – | – | – | – | – | – | –
[H]/N=C(\CCNC(=O)c1cc(NC(=O)c2cc(NC(=O)c3ccc(C=Cc4ccc(N(C)C)cc4)nc3)cn2C)cn1C)NCCCCCCCCC [Ia32, (E)-6-(4-(dimethylamino)styryl)-N-(5-((5-((3-imino-3-(nonylamino)propyl)carbamoyl)-1-methyl-1H-pyrrol-3-yl)carbamoyl)-1-methyl-1H-pyrrol-3-yl)nicotinamide] | – | – | 5 to 25 µg/mL (≈ 7.06 to 35.3 µM) | > 50 µg/mL | – | > 50 µg/mL | > 50 µg/mL | > 100 µM | 23% | 67% | 5 to 25 µg/mL (≈ 7.06 to 35.3 µM) | < 5 µM | < 4.30 | > 100 µM | C (Group C: 5 < SI <= 10) | – | – | – | – | –
CCCCNC(=N)CCNC(=O)c1cc(NC(=O)c2cc(NC(=O)c3ccc(/C=C/c4cnc5ccccc5c4)cc3)cn2C)cn1C [Ia34, (E)-N-(3-(butylamino)-3-iminopropyl)-1-methyl-4-(1-methyl-4-(4-(2-(quinolin-3-yl)vinyl)benzamido)-1H-pyrrole-2-carboxamido)-1H-pyrrole-2-carboxamide] | – | – | 25 to 50 µg/mL (≈ 38.8 to 77.5 µM) | > 50 µg/mL | – | > 50 µg/mL | > 50 µg/mL | > 100 µM | 6% | 7% | 5 to 25 µg/mL (≈ 7.75 to 38.8 µM) | < 5 µM | 5.30 to 6.00 | 5 to 25 µM (≈ 3.22 to 16.1 µg/mL) | D (D: SI > 10) | 15 | – | – | – | –
[H]/N=C(\CCNC(=O)c1cc(NC(=O)c2cc(NC(=O)c3ccc(C=Cc4ccc5nonc5c4)cc3)cn2C)cn1C)NCCC1CCOCC1 [Ia45, (E)-4-(4-(2-(benzo[c][1,2,5]oxadiazol-5-yl)vinyl)benzamido)-N-(5-((3-imino-3-((2-(tetrahydro-2H-pyran-4-yl)ethyl)amino)propyl)carbamoyl)-1-methyl-1H-pyrrol-3-yl)-1-methyl-1H-pyrrole-2-carboxamide] | – | – | 5 to 25 µg/mL (≈ 7.23 to 36.1 µM) | – | – | – | > 50 µg/mL | > 100 µM | 3% | 9% | 25 to 50 µg/mL (≈ 36.1 to 72.3 µM) | 5 to 25 µM (≈ 3.46 to 17.3 µg/mL) | 4.30 to 5.30 | > 100 µM | B (Group B: 3 < SI <= 5) | – | – | – | – | –
CN1CCN(C(=N)CCNC(=O)c2cc(NC(=O)c3cc(NC(=O)c4ccc(/C=C/c5cnc6ccccc6c5)cc4)cn3C)cn2C)CC1 [Ib3, (E)-N-(3-imino-3-(4-methylpiperazin-1-yl)propyl)-1-methyl-4-(1-methyl-4-(4-(2-(quinolin-3-yl)vinyl)benzamido)-1H-pyrrole-2-carboxamido)-1H-pyrrole-2-carboxamide] | – | – | 5 to 25 µg/mL (≈ 7.44 to 37.2 µM) | – | – | – | > 50 µg/mL | > 100 µM | 5% | 13% | 5 to 25 µg/mL (≈ 7.44 to 37.2 µM) | < 5 µM | 4.30 to 5.30 | 5 to 25 µM (≈ 3.36 to 16.8 µg/mL) | B (Group B: 3 < SI <= 5) | – | – | – | – | –
Cn1cc(NC(=O)c2cc(NC(=O)c3ccc(/C=C/c4cnc5ccccc5c4)cc3)cn2C)cc1C(=O)NCCC(=N)N1CCOCC1 [Ib5, (E)-N-(3-imino-3-morpholinopropyl)-1-methyl-4-(1-methyl-4-(4-(2-(quinolin-3-yl)vinyl)benzamido)-1H-pyrrole-2-carboxamido)-1H-pyrrole-2-carboxamide] | C (Group C: 16 < SI <= 32) | – | 5 to 25 µg/mL (≈ 7.59 to 37.9 µM) | – | C (Group C: 5 < SI <= 10) | 25 to 50 µg/mL (≈ 37.9 to 75.9 µM) | 5 to 25 µg/mL (≈ 7.59 to 37.9 µM) | > 100 µM | 13% | 22% | < 5 µg/mL | < 5 µM | 5.30 to 6.00 | < 5 µM | D (D: SI > 10) | 27 | – | – | – | –
[H]/N=C(\CCNC(=O)c1cc(NC(=O)c2cc(NC(=O)c3ccc(C=Cc4ccc5nonc5c4)cc3)cn2C)cn1C)N1CCOCC1 [Ib6, (E)-4-(4-(2-(benzo[c][1,2,5]oxadiazol-5-yl)vinyl)benzamido)-N-(5-((3-imino-3-morpholinopropyl)carbamoyl)-1-methyl-1H-pyrrol-3-yl)-1-methyl-1H-pyrrole-2-carboxamide] | – | – | 25 to 50 µg/mL (≈ 38.5 to 77 µM) | – | – | 5 to 25 µg/mL (≈ 7.7 to 38.5 µM) | – | > 100 µM | 49% | 11% | 25 to 50 µg/mL (≈ 38.5 to 77 µM) | 5 to 25 µM (≈ 3.25 to 16.2 µg/mL) | < 4.30 | 25 to 100 µM (≈ 16.2 to 65 µg/mL) | – | – | – | – | – | –
[H]/N=C(\CCNC(=O)c1cc(NC(=O)c2cc(NC(=O)c3ccc(C=Cc4ccc5nonc5c4)cc3)cn2C)cn1C)N1CCSCC1 [Ib8, (E)-4-(4-(2-(benzo[c][1,2,5]oxadiazol-5-yl)vinyl)benzamido)-N-(5-((3-imino-3-thiomorpholinopropyl)carbamoyl)-1-methyl-1H-pyrrol-3-yl)-1-methyl-1H-pyrrole-2-carboxamide] | – | – | 5 to 25 µg/mL (≈ 7.51 to 37.5 µM) | – | – | 5 to 25 µg/mL (≈ 7.51 to 37.5 µM) | 5 to 25 µg/mL (≈ 7.51 to 37.5 µM) | > 100 µM | 4% | 15% | < 5 µg/mL | < 5 µM | 5.30 to 6.00 | < 5 µM | – | – | – | – | – | –
COCCOCC[N+](C)(C)CCNC(=O)c1cc(NC(=O)c2cc(NC(=O)c3ccc(/C=C/c4cnc5ccccc5c4)cc3)cn2C)cn1C [Ic18, (E)-2-(2-methoxyethoxy)-N,N-dimethyl-N-(2-(1-methyl-4-(1-methyl-4-(4-(2-(quinolin-3-yl)vinyl)benzamido)-1H-pyrrole-2-carboxamido)-1H-pyrrole-2-carboxamido)ethyl)ethan-1-aminium] | – | – | 5 to 25 µg/mL | > 50 µg/mL | – | 25 to 50 µg/mL | > 50 µg/mL | > 100 µM | – | – | < 5 µg/mL | < 5 µM | 5.30 to 6.00 | < 5 µM | – | – | C (Group C: 1.5 < SI <= 3) | D (Group D: SI > 5) | 5.1 | C (Group C: 5 < SI <= 10)
